According to ChEMBL document CHEMBL1132835, “Solid-phase synthesis of 2,3-disubstituted indoles: discovery of a novel, high-affinity, selective h5-HT2A antagonist” (Bioorg Med Chem Lett, 2000):

Biological target: 5-hydroxytryptamine receptor 2A (Homo sapiens, UniProt P28223)
Assay: Ability to displace [3H]ketanserin from CHO cells expressing human 5-hydroxytryptamine 2A receptor was determined
Format: cell-based

Sequence of 5-hydroxytryptamine receptor 2A (P28223 whole entry): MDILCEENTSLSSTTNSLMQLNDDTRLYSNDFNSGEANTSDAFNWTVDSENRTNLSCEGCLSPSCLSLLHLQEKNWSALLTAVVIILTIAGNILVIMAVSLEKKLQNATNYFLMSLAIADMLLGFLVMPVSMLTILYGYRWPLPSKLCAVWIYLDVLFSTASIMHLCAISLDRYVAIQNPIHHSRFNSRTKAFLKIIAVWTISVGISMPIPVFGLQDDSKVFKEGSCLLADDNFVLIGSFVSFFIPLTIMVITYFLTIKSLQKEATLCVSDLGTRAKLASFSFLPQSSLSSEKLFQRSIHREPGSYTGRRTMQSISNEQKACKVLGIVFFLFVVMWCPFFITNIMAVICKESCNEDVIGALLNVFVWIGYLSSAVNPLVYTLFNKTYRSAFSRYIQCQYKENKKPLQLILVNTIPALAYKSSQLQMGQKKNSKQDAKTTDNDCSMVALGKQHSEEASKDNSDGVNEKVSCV

c1ccc(-c2[nH]c3ccccc3c2CCN2CCCCC2)cc1
Ki: 2.7 nM
